Three compounds from patent publication US20260190612A1, “LIGHT-EMITTING DEVICE” (SEMICONDUCTOR ENERGY LABORATORY CO., LTD., priority 2022, published 2026) can be followed below.

≈ marks a conversion by molar mass, not a printed value.

This data set in a line: solubility of the first organic compound in water.
Compound `c1ccc2c(c1)-c1ccccc1C21c2cc(N3CCCN4CCCN=C43)ccc2-c2ccc(N3CCCN4CCCN=C43)cc21` [2,7hpp2SF, 1,1′-(9,9′-spirobi[9H-fluorene]-2,7-diyl)bis(1,3,4,6,7,8-hexahydro-2H-pyrimido[1,2-a]pyrimidine)] yielded a solubility of 230 to 390 µg/mL (≈ 389 to 660 µM).

Take `c1ccc2c(c1)-c1ccccc1C21c2ccccc2-c2ccc(N3CCCN4CCCN=C43)cc21` [2hppSF, 1-(9,9′-spirobi[9H-fluoren]-2-yl)-1,3,4,6,7,8-hexahydro-2H-pyrimido[1,2-a]pyrimidine]: the solubility is 18 to 22 µg/mL (≈ 39.7 to 48.5 µM).

Turning to `CC(C)(C)c1ccc2c(c1)C1(c3ccccc3-c3ccc(N4CCCN5CCCN=C54)cc31)c1cc(C(C)(C)C)ccc1-2` [2′,7′tBu-2hppSF, 1-(2′,7′-di-tert-butyl-9,9′-spirobi[9H-fluoren]-2-yl)-1,3,4,6,7,8-hexahydro-2H-pyrimido[1,2-a]pyrimidine], the solubility was below 2.3 µg/mL.

The solubility is the concentration that dissolves in the medium under given conditions. A high value points to a readily soluble substance.
